Experimental data published in ChEMBL document CHEMBL3046832, “Synthesis of some sulfonamides, disubstituted sulfonylureas or thioureas and some structurally related variants. A class of promising antitumor agents” (2007).

Tests used:
Assay type in all cases: functional
SK-MEL-5 = experiment: Cytotoxicity against Homo sapiens (human) SK-MEL-5 cells after 48 hr by SRB assay; details: SK-MEL-5, 48 h
OVCAR-3 = experiment: Cytotoxicity against Homo sapiens (human) OVCAR3 cells after 48 hr by SRB assay; details: OVCAR-3, 48 h
KM12 = experiment: Cytotoxicity against Homo sapiens (human) KM12 cells after 48 hr by SRB assay; details: KM12, 48 h
DU-145 = experiment: Cytotoxicity against Homo sapiens (human) DU145 cells after 48 hr by SRB assay; details: DU-145, 48 h
786-0 = experiment: Cytotoxicity against Homo sapiens (human) 786-0 cells after 48 hr by SRB assay; details: 786-0, 48 h
[1] = Cytotoxicity against Homo sapiens (human) melanoma cells after 48 hr by SRB assay; details: Melanoma cell
[2] = Cytotoxicity against Homo sapiens (human) ovarian cancer cells after 48 hr by SRB assay; details: Cancer cell lines
ACHN = experiment: Cytotoxicity against Homo sapiens (human) ACHN cells after 48 hr by SRB assay
MCF7 [3] = experiment: Cytotoxicity against Homo sapiens (human) MCF7 cells after 48 hr by SRB assay; details: MCF7, 48 h
NCI-H522 = experiment: Cytotoxicity against Homo sapiens (human) NCI-H522 cells after 48 hr by SRB assay; details: NCI-H522, 48 h
SK-MEL-28 = experiment: Cytotoxicity against Homo sapiens (human) SK-MEL-28 cells after 48 hr by SRB assay; details: SK-MEL-28, 48 h
U-251 = experiment: Cytotoxicity against Homo sapiens (human) U251 cells after 48 hr by SRB assay; details: U-251, 48 h
HT-29 = experiment: Cytotoxicity against Homo sapiens (human) HT-29 cells after 48 hr by SRB assay; details: HT-29, 48 h
MDA-MB-231 = experiment: Cytotoxicity against Homo sapiens (human) MDA-MB-231 cells after 48 hr by SRB assay; details: MDA-MB-231, 48 h
CAKI-1 = experiment: Cytotoxicity against Homo sapiens (human) Caki1 cells after 48 hr by SRB assay; details: CAKI-1, 48 h
RXF 393 = experiment: Cytotoxicity against Homo sapiens (human) RXF393 cells after 48 hr by SRB assay; details: RXF 393, 48 h
[4] = Cytotoxicity against Homo sapiens (human) CNS cancer cells after 48 hr by SRB assay; details: Cancer cell lines
SF-268 [5] = experiment: Cytotoxicity against Homo sapiens (human) SF268 cells after 48 hr by SRB assay; details: SF-268, 48 h
COLO 205 = experiment: Cytotoxicity against Homo sapiens (human) COLO205 cells after 48 hr by SRB assay; details: COLO 205, 48 h
M14 = experiment: Cytotoxicity against Homo sapiens (human) M14 cells after 48 hr by SRB assay; details: M14, 48 h
HOP-92 = experiment: Cytotoxicity against Homo sapiens (human) HOP92 cells after 48 hr by SRB assay; details: HOP-92, 48 h
Hs-578T = experiment: Cytotoxicity against Homo sapiens (human) Hs578T cells after 48 hr by SRB assay
T47D = experiment: Cytotoxicity against Homo sapiens (human) T47D cells after 48 hr by SRB assay
LOX IMVI = experiment: Cytotoxicity against Homo sapiens (human) LOXIMVI cells after 48 hr by SRB assay
SK-OV-3 = experiment: Cytotoxicity against Homo sapiens (human) SKOV3 cells after 48 hr by SRB assay; details: SK-OV-3, 48 h
[6] = Cytotoxicity against Homo sapiens (human) NCI-ADR-RES cells after 48 hr by SRB assay
EKVX = experiment: Cytotoxicity against Homo sapiens (human) EKVX cells after 48 hr by SRB assay
HCT-15 = experiment: Cytotoxicity against Homo sapiens (human) HCT15 cells after 48 hr by SRB assay; details: HCT-15, 48 h
SF-539 = experiment: Cytotoxicity against Homo sapiens (human) SF539 cells after 48 hr by SRB assay; details: SF-539, 48 h
SF-268 [7] = experiment: Cytotoxicity against Homo sapiens (human) SF268 cells assessed as cellular growth after 48 hr by Alamar blue assay; set-up: concentration or dose not given beside the values
SW-620 = experiment: Cytotoxicity against Homo sapiens (human) SW620 cells after 48 hr by SRB assay; details: SW-620, 48 h
[8] = Cytotoxicity against Homo sapiens (human) renal cancer cells after 48 hr by SRB assay; details: Cancer cell lines
SNB-19 = experiment: Cytotoxicity against Homo sapiens (human) SNB19 cells after 48 hr by SRB assay; details: SNB-19, 48 h
SF-295 = experiment: Cytotoxicity against Homo sapiens (human) SF295 cells after 48 hr by SRB assay; details: SF-295, 48 h
[9] = Cytotoxicity against Homo sapiens (human) non-small cell lung cancer cells after 48 hr by SRB assay; details: Cancer cell lines
A549 = experiment: Cytotoxicity against Homo sapiens (human) A549 cells after 48 hr by SRB assay; details: A549, 48 h
OVCAR-8 = experiment: Cytotoxicity against Homo sapiens (human) OVCAR8 cells after 48 hr by SRB assay; details: OVCAR-8, 48 h
NCI-H23 = experiment: Cytotoxicity against Homo sapiens (human) NCI-H23 cells after 48 hr by SRB assay; details: NCI-H23, 48 h
UACC-62 = experiment: Cytotoxicity against Homo sapiens (human) UACC62 cells after 48 hr by SRB assay; details: UACC-62, 48 h
NCI-H460 = experiment: Cytotoxicity against Homo sapiens (human) NCI-H460 cells assessed as cellular growth after 48 hr by Alamar blue assay; set-up: concentration or dose not given beside the values
OVCAR-5 = experiment: Cytotoxicity against Homo sapiens (human) OVCAR5 cells after 48 hr by SRB assay; details: OVCAR-5, 48 h
BT-549 = experiment: Cytotoxicity against Homo sapiens (human) BT549 cells after 48 hr by SRB assay; details: BT-549, 48 h
[10] = Cytotoxicity against Homo sapiens (human) breast cancer cells after 48 hr by SRB assay; details: Cancer cell lines
[11] = Cytotoxicity against Homo sapiens (human) NCI-H322 cells after 48 hr by SRB assay; details: NCI-H322, 48 h
MCF7 [12] = experiment: Cytotoxicity against Homo sapiens (human) MCF7 cells assessed as cellular growth after 48 hr by Alamar blue assay; set-up: concentration or dose not given beside the values
UACC-257 = experiment: Cytotoxicity against Homo sapiens (human) UACC257 cells after 48 hr by SRB assay; details: UACC-257, 48 h
UO-31 = experiment: Cytotoxicity against Homo sapiens (human) UO31 cells after 48 hr by SRB assay; details: UO-31, 48 h

With `O=C(c1ccccc1)n1c(-c2ccccc2)cs/c1=N\S(=O)(=O)c1ccc(N2N=C3c4ccccc4CC3C2c2cccs2)cc1` (stereo unspecified) the GI50 (SK-MEL-5) was 24.4 µM, the GI50 (OVCAR-3) was 55.2 µM and the GI50 (KM12) was 38.3 µM. The GI50 (DU-145) was 47 µM, the GI50 (786-0) was 21.8 µM and the GI50 [1] was 51.6 µM. For the same compound, the TGI [1] was 98.2 µM, the GI50 [2] was 72 µM and the TGI [2] was greater than 100 µM. For the same compound, the GI50 (ACHN) was 43.8 µM, the GI50 (MCF7 [3]) was greater than 100 µM and the GI50 (NCI-H522) was 23.7 µM. For the same compound, the GI50 (SK-MEL-28) was greater than 100 µM, the GI50 (U-251) was 32 µM and the GI50 (HT-29) was 73.3 µM. It also gave a GI50 (MDA-MB-231) of 41.3 µM, a GI50 (CAKI-1) of 38 µM and a GI50 (RXF 393) of 37 µM. The GI50 [4] was 64.5 µM, the TGI [4] was greater than 100 µM and the GI50 (SF-268 [5]) was greater than 100 µM. For the same compound, the GI50 (COLO 205) was 98.1 µM, the GI50 (M14) was 33 µM and the GI50 (HOP-92) was greater than 100 µM. For the same compound, the GI50 (Hs-578T) was 17 µM, the GI50 (T47D) was greater than 100 µM and the GI50 (LOX IMVI) was 30.7 µM. The GI50 (SK-OV-3) was greater than 100 µM, the GI50 [6] was greater than 100 µM and the GI50 (EKVX) was 40.7 µM. For the same compound, the GI50 (HCT-15) was 61.4 µM, the GI50 (SF-539) was 58.6 µM and the Activity (SF-268 [7]) was “<=32%”. For the same compound, the GI50 (SW-620) was 58.8 µM, the GI50 [8] was 44.8 µM and the TGI [8] was 95.3 µM. It also gave a GI50 (SNB-19) of 59.2 µM, a GI50 (SF-295) of 37.1 µM and a GI50 [9] of 43.7 µM. The TGI [9] was 83.9 µM, the GI50 (A549) was 39.5 µM and the GI50 (OVCAR-8) was 42.9 µM. The GI50 (NCI-H23) was 13.1 µM, the GI50 (UACC-62) was 27.3 µM and the Activity (NCI-H460) was “<=32%”. The GI50 (OVCAR-5) was 34.3 µM, the GI50 (BT-549) was 69.7 µM and the GI50 [10] was 65.3 µM. The TGI [10] was greater than 100 µM, the GI50 [11] was 22.3 µM and the Activity (MCF7 [12]) was “<=32%”. It also gave a GI50 (UACC-257) of 45.7 µM and a GI50 (UO-31) of 98.1 µM.
Compound `O=S(=O)(/N=c1\scc(-c2ccccc2)n1-c1ccccc1)c1ccc(N2N=C3c4ccccc4CC3C2c2cccs2)cc1` (stereo unspecified) has a GI50 (SK-MEL-5) of 48 µM, a GI50 (OVCAR-3) greater than 100 µM and a GI50 (KM12) of 32.1 µM. For the same compound, the GI50 (DU-145) was greater than 100 µM, the GI50 (786-0) was 64.2 µM and the GI50 [1] was 74.6 µM. For the same compound, the TGI [1] was greater than 100 µM, the GI50 [2] was 87.2 µM and the TGI [2] was greater than 100 µM. The GI50 (ACHN) was 42.5 µM, the GI50 (MCF7 [3]) was 29.1 µM and the GI50 (NCI-H522) was 61.9 µM. The GI50 (SK-MEL-28) was greater than 100 µM, the GI50 (U-251) was 31.2 µM and the GI50 (HT-29) was 82 µM. For the same compound, the GI50 (MDA-MB-231) was 52.1 µM, the GI50 (CAKI-1) was 73 µM and the GI50 (RXF 393) was 98.2 µM. For the same compound, the GI50 [4] was 80.9 µM, the TGI [4] was greater than 100 µM and the GI50 (SF-268 [5]) was greater than 100 µM. The GI50 (COLO 205) was greater than 100 µM, the GI50 (M14) was 81.5 µM and the GI50 (HOP-92) was greater than 100 µM. The GI50 (Hs-578T) was 60.6 µM, the GI50 (T47D) was greater than 100 µM and the GI50 (LOX IMVI) was 32.4 µM. It also gave a GI50 (SK-OV-3) greater than 100 µM, a GI50 [6] greater than 100 µM and a GI50 (EKVX) of 35.5 µM. The GI50 (HCT-15) was 67.4 µM, the GI50 (SF-539) was greater than 100 µM and the Activity (SF-268 [7]) was “<=32%”. It also gave a GI50 (SW-620) of 94.2 µM, a GI50 [8] of 72.1 µM and a TGI [8] of 96.5 µM. It also gave a GI50 (SNB-19) greater than 100 µM, a GI50 (SF-295) of 54.5 µM and a GI50 [9] of 66.8 µM. It also gave a TGI [9] of 98.2 µM, a GI50 (A549) of 57 µM and a GI50 (OVCAR-8) of 47.2 µM. The GI50 (NCI-H23) was 68 µM, the GI50 (UACC-62) was 60.3 µM and the Activity (NCI-H460) was “<=32%”. It also gave a GI50 (OVCAR-5) of 88.9 µM, a GI50 (BT-549) of 47.5 µM and a GI50 [10] of 61.1 µM. The TGI [10] was greater than 100 µM, the GI50 [11] was 31.4 µM and the Activity (MCF7 [12]) was “<=32%”. It also gave a GI50 (UACC-257) greater than 100 µM and a GI50 (UO-31) greater than 100 µM.
